Entries after “also recorded” stand apart in the source; their conditions may differ.
Key:
[1] = system: granule cells of the dentate gyrus; assay: GABAergic activity (sIPSCs), whole-cell patch-clamp in acute brain slices; format: cell-based, mouse; conditions: for GABAergic activity (in words): Sortilin −/− mouse brain slices
Procedure: FIG. 8: Neuronal GABA activity is increased in Sortilin and SorCS2 −/− mice, and can be rescued by BDNF. A, model describing how dentate gyrus granule cells are under powerful inhibitory control by GABAergic basket cells. The basket cell excitability is in turn depressed by BDNF released from the granule cells (Holm et al. Submitted, 2008) B, the GABAergic activity was assessed by electrophysiological recordings from single neurons in an in vitro mouse brain slice preparation (P16-P20). In each experimental condition, the frequency of spontaneous inhibitory postsynaptic currents (sIPSCs) was measured in Hz. In control mice (wildtype, WT) the GABAergic activity was 2.96±0.53 Hz (n=33 cells). In Sortilin −/− (Sortilin KO) mice, this activity increased to 6.15±0.80 Hz (n=25 cells). In rescue experiments, exogenous BDNF (20 ng/ml) reversed the GABA activity of Sortilin KO mice back to WT levels, reaching 2.66±1.4 Hz (n=3 cells). For comparison, the GABAergic activity in SorCS2 −/− (SorCS2 KO) mice was 5.68±0.7 Hz (n=6), highlighting the importance of Vps10p proteins in these inhibitory cell functions. Error bars indicate S.E.M.
3-4 week wildtype and Sortilin deficient mice were examined for neurophysiological in vitro correlates of anxiety/depression like behavior. In fresh 350 μm thick brain slices, inhibitory GABAergic synaptic input to hippocampal granule cells were quantified in living tissues. Electrophysiological patch-clamp recordings were carried out from acute brain slices from WT, Sortilin and Sorcs2 knockout (KO) mice. Following deep isoflurane anesthesia, male mice were sacrifized and the brain was carefully dissected out and cooled. 350 um thick brain slices were cut on a Vibratome 3000 Plus, and the tissue rested in O2/CO2 bubbled Ringer solution for at least 1 hour before experimentation (Drasbek and Jensen 2006). Whole-cell patch-clamp recordings were carried out at 33° C. from the soma of identified granule cells of the dentate gyrus (Jensen and Mody 2001). Under conditions of blocked glutamatergic excitation, GABAergic activity was apparent as spontaneous inhibitory postsynaptic currents (sIPSCs) that could be blocked by the GABAA receptor antagonist SR95531 (100 μM). For each cell, the frequency of sIPSCs was analyzed and frequencies were pooled within each experimental group. In rescue experiments, BDNF (brain-derived neurotrophic factor, 20 ng/ml) was perfused to the brain slice for at least 5 min and the GABAergic activity was assessed. […] Subsequently, the pathophysiological neuronal activity was restored in Sortilin deficient mouse brain slices by administering exogenous brain-derived neurotrophic factor (BDNF 20 ng/ml) to the tissue bathing solution (FIG. 8B).

[2] = system: patient suffering from a mental and behavioural disorder; assay: Passive delivery device implanted into the brain of a patient with a mental and behavioural disorder (Examples 18, 19); format: in vivo, human; conditions: device for passive delivery surgically implanted into the brain
From the text: The soluble domain of human Sortilin is expressed recombinantly at a large scale in a mammalian cell culture and is subsequently purified by for example immunoaffinity chromatography. A device for passive delivery containing purified soluble Sortilin is surgically implanted into the brain of a patient suffering from a mental and behavioural disorder. Good effect is obtained and the patient is set on lifelong treatment.
The soluble domain of human Sortilin is expressed recombinantly at a large scale in a mammalian cell culture and is subsequently purified by for example immunoaffinity chromatography. Similarly, proBDNF is expressed and purified at a large scale. Soluble Sortilin and proBDNF is incubated together to form a preformed Sortilin:proBDNF complex. A device for passive delivery containing purified preformed Sortilin:proBDNF is surgically implanted into the brain of a patient suffering from a mental and behavioural disorder. Good effect is obtained and the patient is set on lifelong treatment.

[3] = system: Sortilin −/− hippocampal CA1 synapses; assay: NMDA receptor-dependent LTD in Sortilin −/− hippocampal slices (f-EPSP recording); format: cell-based, mouse; conditions: 40 ng/ml for at least 1 h before recording and throughout, LFS 1 Hz, 15 min
Procedure: FIG. 3: Impaired NMDA receptor-dependent LTD in Sortilin −/− and SorCS1 −/− mice. A, lack of LTD in sortilin −/− hippocampal CA1 synapses by the application of LFS (1 Hz, 15 min) to the Schaffer collaterals. In wt hippocampal CA1 synapses a LFS induces synaptic depression. B, rescue of NMDA receptor-dependent LTD in Sortilin −/− hippocampal CA1 synapses by cleavage-resistant proBDNF. […] LFS (1 Hz, 15 min) was applied to the Schaffer collaterals. In Sortilin −/− hippocampal slices incubated with control vehicle the LTD was still impaired. C, a similar experiment showing rescue of NMDA receptor-dependent LTD in sortilin −/− hippocampal CA1 synapses by 40 ng/ml purified soluble Sortilin. D, a similar experiment showing lack of LTD in SorCS1 −/− hippocampal CA1 synapses. […]
SorCS2 −/− mice were backcrossed onto a C57BL/6 background for more than ten generations and wild type C57BL/6 mice were used as control. […] After a recovery period of at least two h, the slices were moved to an interface chamber exposed to a humidified atmosphere of 95% O2 and 5% CO2 and we recorded field Exitatory Post-Synaptic Potentials (f-EPSP) using an Axoclamp-2B amplifier (Axon Instruments) with an artificial cerebral spinal fluid (ACSF; in mM: 126 NaCl, 2.5 KCl, 1.25 NaH2PO4, 2.5 CaCl2, 1.3 MgCl2, 10 D-glucose)-filled glass microelectrode (10-15 MΩ) positioned in the stratum radiatum of hippocampal area CA1. […]

In the case of `Br.COc1ccc(-c2ccc(=N)n(CCCC(=O)O)n2)cc1` [SR95531, reference compound], the “spontaneous inhibitory postsynaptic currents (sIPSCs)” value ([1]; 100 μM, blocked glutamatergic excitation) is reported as “blocked”.

In the case of “soluble Sortilin: purified soluble Sortilin, the luminal (Vps10p-domain) part of the receptor”, the “effect of treatment in the patient” value [2] is reported as “Good effect”, the “NMDA receptor-dependent LTD” value [3] is reported as “rescued” and the “NMDA receptor-dependent LTD” value ([3]; listed as recombinant soluble Sortilin) is reported as “rescued”.

B1: mature BDNF: mature brain-derived neurotrophic factor (protein)
chain: HSDPARRGELSVCDSISEWVTAADKKTAVDMSGGTVTVLEKVPVSKGQLKQYFYETKCNPMGYTKEGCRGIDKRHWNSQCRTTQSYVRALTMDSKKRIGWRFIRIDTSCVCTLTIKRGR
In the case of B1, the “frequency of spontaneous inhibitory postsynaptic currents (sIPSCs)” value ([1]; Sortilin KO mouse brain slices, 20 ng/ml, n=3 cells) is reported as 2.66±1.4 Hz, the “GABAergic activity (in words)” value ([1]; 20 ng/ml) is reported as “restored” and the “GABAergic activity (in words)” value ([1]; 20 ng/ml, listed as exogenous BDNF) is reported as “normalizes; also recorded: reversed”.

— patent publication US8703125B2, “Modulation of the Vps10p-domain receptor family for the treatment of mental and behavioural disorders” (H. Lundbeck A/S, priority 2008, dated 2014)
